Values joined by “and” are separate entries in the source; they are usually repeats but may differ in a detail not shown here. Equal values may be shown once. Read-outs that look alike come from different tables or passages of the source.
What was measured:
[1] = tested on: Human Skin Fibroblasts (HSF) cells; test: Margin of safety: cytotoxicity on human skin fibroblasts (SRB assay); format: cell-based
Method: Cell viability was assessed via SRB assay. Aliquots of 100 µl cell suspension (5 × 10^3 cells) were in 96-well plates and incubated in a complete media for 24 h. […] After 72 h of drug exposure, cells were fixed by replacing media with 150 µl of 10% TCA and incubated at 4 °C for 1 h. The TCA solution was removed, and the cells were washed 5 times with distilled water. Aliquots of […] SRB solution (0.4 w/v) were added and incubated in a dark place at room temperature for 10 min. Plates were washed 3 times with 1% acetic acid and allowed to air-dry overnight. Then, 150 µl of TRIS (10 mM) was added to dissolve the protein-bound SRB stain; the absorbance was measured at 540 nm using a BMG LAB TECH®-FLUO star Omega microplate reader (Ortenberg, Germany).

[2] = tested on: MCF-7 (human breast cancer); test: Cytotoxicity versus MCF-7 cell line (MTT assay); conditions: MCF7, read-out: MCF-7 (IC50 ± SD, uM)
[3] = tested on: tubulin; test: Tubulin polymerization inhibition assay; format: biochemical
[4] = tested on: tubulin; design: method as in PMID 33038796; conditions: read-out: tubulin polymerization IC50; cited from earlier work
[5] = tested on: tubulin; design: method as in PMID 34832895; conditions: read-out: IC50 tubulin assembly; cited from earlier work
[6] = tested on: 60 human cancer cell lines; test: NCI one-dose assay against sixty NCI cancer cell lines; format: cell-based
Method: (§1) All novel scaffolds 6a–j were carefully selected by the National Cancer Institute (NCI), Bethesda, USA, to elucidate their cytotoxic activity versus 60 human cancer cell lines at 10 µM as a single-dose concentration after a 48 h incubation period.
(§2) National Cancer Institution selected all the synthesized 6a–j (NCI), Bethesda, USA, for in vitro one-dose antitumor assay. The methodology protocol for the NCI anticancer screening was reported in detail elsewhere (http://www.dtp.nci.nih.gov). The anticancer assay was performed in full NCI 60 cell lines extracted from nine tumor cell lines, including leukemia, melanoma, lung, colon, CNS, ovarian, renal, prostate, and breast cancer cell lines.

[7] = tested on: SNB-75 cells (CNS cancer cell line); test: NCI one-dose assay, SNB-75; format: cell-based; conditions: Homo sapiens; SNB-75 (CNS Cancer), 10 uM single dose; read-out: Growth inhibition %
Method: as §1, §2

[8] = tested on: NCI/ADR-RES (ovarian cancer cell line); test: NCI one-dose assay, NCI/ADR-RES; format: cell-based; conditions: Homo sapiens; NCI/ADR-RES; 10 µM single dose, 48 h incubation; read-out: cell growth inhibition % (GI %)
Method: as §1, §2

[9] = tested on: HOP-92 (non-small cell lung cancer cell line); test: NCI one-dose assay, HOP-92; format: cell-based; conditions: Homo sapiens; HOP-92 (Non-Small Cell Lung Cancer), 10 uM single dose; read-out: Growth inhibition %
Method: as §1, §2

[10] = tested on: UO-31; test: NCI one-dose assay, UO-31; format: cell-based; conditions: Homo sapiens; UO-31 (Renal Cancer), 10 uM single dose; read-out: Growth inhibition %
Method: as §1, §2

[11] = tested on: K-562; test: NCI one-dose assay, K-562; format: cell-based; conditions: Homo sapiens, K562; K-562 (Leukemia), 10 uM single dose; read-out: Growth inhibition %
Method: as §1, §2

[12] = tested on: MOLT-4; test: NCI one-dose assay, MOLT-4; format: cell-based; conditions: Homo sapiens; MOLT-4 (Leukemia), 10 uM single dose; read-out: Growth inhibition %
Method: as §1, §2

[13] = tested on: SR; test: NCI one-dose assay, SR; format: cell-based; conditions: Homo sapiens; SR (Leukemia), 10 uM single dose; read-out: Growth inhibition %
Method: as §1, §2

[14] = tested on: SK-MEL-5; test: NCI one-dose assay, SK-MEL-5; format: cell-based; conditions: Homo sapiens; SK-MEL-5 (Melanoma), 10 uM single dose; read-out: Growth inhibition %
Method: as §1, §2

[15] = tested on: MCF-7; test: NCI one-dose assay, MCF-7; format: cell-based, human; conditions: Homo sapiens, MCF7, MCF7 (Breast Cancer), 10 uM single dose; read-out: Growth inhibition %
Method: as §1, §2

[16] = tested on: T-47D; test: NCI one-dose assay, T-47D; format: cell-based; conditions: Homo sapiens, T47D; T-47D (Breast Cancer), 10 uM single dose; read-out: Growth inhibition %
Method: as §1, §2

[17] = tested on: EGFR (T790M); design: method as in PMID 29758406; conditions: read-out: IC50 against EGFR (T790M); cited from earlier work
[18] = tested on: EGFR (L858R); design: method as in PMID 29758406; conditions: read-out: IC50 against EGFR (L858R); cited from earlier work
[19] = tested on: c-MET; design: method as in PMID 29758406; conditions: read-out: IC50 against c-MET; cited from earlier work
[20] = tested on: VEGFR-2; conditions: cited from earlier work
[21] = tested on: EGFR^L858R/T790M; design: method as in PMID 34798457; conditions: cited from earlier work
[22] = biological target: EGFR^WT kinase; design: method as in PMID 34798457; conditions: cited from earlier work
[23] = biological target: T1, EGFR (Homo sapiens, UniProt P00533); design: method as in PMID 34832895; conditions: cited from earlier work
T1 construct: purchased

[24] = biological target: colchicine-binding site; design: method as in PMID 34649064; conditions: read-out: competitive inhibition at the colchicine-binding site IC50; cited from earlier work
[25] = tested on: tubulin; design: method as in doi:10.1016/j.molstruc.2022.132345; conditions: read-out: anti-tubulin activity IC50; cited from earlier work

T1 sequence (P00533 25-1210): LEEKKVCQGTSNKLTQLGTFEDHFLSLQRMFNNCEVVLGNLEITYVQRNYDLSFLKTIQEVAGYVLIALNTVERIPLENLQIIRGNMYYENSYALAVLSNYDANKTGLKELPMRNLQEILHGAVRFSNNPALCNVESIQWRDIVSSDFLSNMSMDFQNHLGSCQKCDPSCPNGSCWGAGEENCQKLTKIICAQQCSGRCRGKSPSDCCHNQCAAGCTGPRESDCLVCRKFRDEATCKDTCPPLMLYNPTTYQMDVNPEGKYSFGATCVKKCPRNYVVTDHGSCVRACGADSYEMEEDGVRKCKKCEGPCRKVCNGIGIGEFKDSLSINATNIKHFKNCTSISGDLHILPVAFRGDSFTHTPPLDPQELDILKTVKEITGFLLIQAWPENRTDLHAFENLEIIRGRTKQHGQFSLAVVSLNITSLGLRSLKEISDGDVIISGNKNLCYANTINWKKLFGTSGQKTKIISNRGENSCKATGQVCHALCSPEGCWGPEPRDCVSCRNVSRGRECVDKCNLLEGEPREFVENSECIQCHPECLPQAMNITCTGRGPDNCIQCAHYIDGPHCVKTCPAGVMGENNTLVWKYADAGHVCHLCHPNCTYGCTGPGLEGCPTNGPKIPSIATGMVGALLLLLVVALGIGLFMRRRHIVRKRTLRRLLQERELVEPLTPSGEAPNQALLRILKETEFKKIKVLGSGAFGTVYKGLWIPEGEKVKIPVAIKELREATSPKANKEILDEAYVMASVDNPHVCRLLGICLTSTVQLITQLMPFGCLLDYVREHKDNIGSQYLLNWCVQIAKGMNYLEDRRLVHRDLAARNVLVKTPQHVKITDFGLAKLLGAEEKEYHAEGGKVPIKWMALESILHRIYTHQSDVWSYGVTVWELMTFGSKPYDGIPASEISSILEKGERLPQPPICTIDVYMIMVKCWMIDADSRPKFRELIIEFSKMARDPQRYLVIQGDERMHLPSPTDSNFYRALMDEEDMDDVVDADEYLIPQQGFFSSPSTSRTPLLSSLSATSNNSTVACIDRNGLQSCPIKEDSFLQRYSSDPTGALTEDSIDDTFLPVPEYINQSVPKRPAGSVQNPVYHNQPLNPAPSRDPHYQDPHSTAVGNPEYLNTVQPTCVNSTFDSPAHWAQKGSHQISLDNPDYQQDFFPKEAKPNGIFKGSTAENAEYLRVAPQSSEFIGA

O=c1[nH]cc(F)c(=O)[nH]1 [5FU, 5-fluorouracil, reference compound]
IC50 ([1]; HSF, Human Skin Fibroblasts, SRB assay, 72 h exposure, read-out: HSF (IC50 ± SD)): 5450 ± 20 nM
SI (selectivity index) ([1]; SI = IC50 for HSF / IC50 for MCF-7 cells): 2.70
IC50 [2]: 2.02 ± 0.17 µM

COc1ccc(/C=C\c2cc(OC)c(OC)c(OC)c2)cc1O [CA-4, combretastatin A4]
IC50 [4]: 2500 nM

COc1ccc(C(=O)COc2ccc(C=C3C(=O)Nc4ccccc43)cc2)cc1 [Compound 6h, 3-{4-[2-(4-Methoxyphenyl)-2-oxoethoxy]benzylidene}indolin-2-one]
inhibition at 10 µM ([6]; BT-549 (Breast Cancer), 10 uM single dose, read-out: Growth inhibition %): 10.1%
inhibition at 10 µM ([6]; CAKI-1 (Renal Cancer), 10 uM single dose, read-out: Growth inhibition %): 26.4%
inhibition at 10 µM ([6]; CCRF-CEM (Leukemia), 10 uM single dose, read-out: Growth inhibition %): 14%
inhibition at 10 µM ([6]; HCT-15 (Colon Cancer), 10 uM single dose, read-out: Growth inhibition %): 15.2%
inhibition at 10 µM ([6]; HCT-116 (Colon Cancer), 10 uM single dose, read-out: Growth inhibition %): 25.4%
inhibition at 10 µM ([6]; HL-60(TB) (Leukemia), 10 uM single dose, read-out: Growth inhibition %): 20.8%
inhibition at 10 µM ([6]; HS 578T (Breast Cancer), 10 uM single dose, read-out: Growth inhibition %): 11.3%
inhibition at 10 µM ([6]; IGROV-1, IGROV1 (Ovarian Cancer), 10 uM single dose, read-out: Growth inhibition %): 23.7%
inhibition at 10 µM ([6]; M14 (Melanoma), 10 uM single dose, read-out: Growth inhibition %): 12.1%
inhibition at 10 µM ([6]; MDA-MB-231, read-out: Growth inhibition %): 10.8%
inhibition at 10 µM ([6]; NCI-H226 (Non-Small Cell Lung Cancer), 10 uM single dose, read-out: Growth inhibition %): 15.4%
inhibition at 10 µM ([6]; NCI-H522 (Non-Small Cell Lung Cancer), 10 uM single dose, read-out: Growth inhibition %): 17.2%
inhibition at 10 µM ([6]; OVCAR-3 (Ovarian Cancer), 10 uM single dose, read-out: Growth inhibition %): 18.3%
inhibition at 10 µM ([6]; OVCAR-8 (Ovarian Cancer), 10 uM single dose, read-out: Growth inhibition %): 15.9%
inhibition at 10 µM ([6]; PC-3 (Prostate Cancer), 10 uM single dose, read-out: Growth inhibition %): 36.1%
inhibition at 10 µM ([6]; RPMI-8226 (Leukemia), 10 uM single dose, read-out: Growth inhibition %): 25.4%
inhibition at 10 µM ([6]; SF-539 (CNS Cancer), 10 uM single dose, read-out: Growth inhibition %): 10.7%
inhibition at 10 µM ([6]; SK-OV-3 (Ovarian Cancer), 10 uM single dose, read-out: Growth inhibition %): 14.1%
inhibition at 10 µM ([6]; UACC-62 (Melanoma), 10 uM single dose, read-out: Growth inhibition %): 31.5%
inhibition at 10 µM [7]: 23.6%
inhibition at 10 µM [8]: 43.7%
inhibition at 10 µM [9]: 11.7%
inhibition at 10 µM [10]: 37.5%
inhibition at 10 µM [11]: 39.7%
inhibition at 10 µM [12]: 34.3%
inhibition at 10 µM [13]: 19.2%
inhibition at 10 µM [14]: 17.8%
inhibition at 10 µM [15]: 41.3%
inhibition at 10 µM [16]: 26.4%
melting point: 192 to 194 °C

CC(C)c1ccc(Cn2cc(-c3cc(-c4ccc(Br)cc4)nc(N)n3)c3ccccc32)cc1 [IV]
IC50 [17]: 94 nM
IC50 [18]: 99 nM
IC50 [19]: 595 nM

c1nc(Nc2ccc(N3CCOCC3)cc2)cc(Nc2ccc3[nH]ccc3c2)n1 [VIII]
IC50 ([20]; read-out: IC50 against VEGFR-2): 1200 nM

Cc1ccc(Nc2cc(Oc3ccc4[nH]ccc4c3)ncn2)cc1S(N)(=O)=O [VII]
IC50 ([20]; read-out: IC50 versus VEGFR-2): 45 nM

C=CC(=O)Nc1cc(Nc2nccc(-c3cn(C)c4ccccc34)n2)c(OC)cc1-n1cccc1CN(C)C [V]
IC50 [21]: 1.7 nM
selectivity versus EGFR^L858R/T790M over EGFR^WT kinase [21]: about 22 folds
IC50 [22]: 37 nM

COc1cc(OC)c(C=C2C(=O)Nc3cc(Cl)ccc32)c(OC)c1 [XIII]
IC50 [23]: 549 nM
IC50 [5]: 1660 nM

Cc1cc(-c2cccc(-c3c[nH]c4ccccc34)n2)c2ccccc2n1 [XII]
IC50 [4]: 5000 nM

COc1ccc2c(/C=C(\C)C(=O)c3cc(OC)c(OC)c([Se]C)c3)c[nH]c2c1 [XI]
IC50 [24]: 1300 nM

COc1cc(NC(=O)/C(C#N)=C/c2c[nH]c3ccccc23)cc(OC)c1OC [X]
IC50 [25]: 18000 nM

— publication PMC11070402, “New antiproliferative 3-substituted oxindoles inhibiting EGFR/VEGFR-2 and tubulin polymerization” (Molecular Diversity, 2023)
